Assay: Effect of autoclave sterilization on final drug concentration in silicone sleeve
Type: physicochemical
Conditions: rifampin in silicone sleeve, starting concentration about 0.0738 wt %, autoclave about 30 minutes
Protocol: FIG. 18 illustrates the effect of sterilization on the final drug concentration, showing the degradation rate versus autoclave time, for example, with a starting concentration of about 0.0738 wt % rifampin in the silicone and running the autoclave about 30 minutes will result in a final concentration of about 0.054 wt % rifampin in the silicone sleeve.
The term “weight percent” or “wt %” means the ratio of the drug weight to the weight of the biocompatible matrix, e.g., the silicone after sterilization, for example, an initial concentration of rifampin of about 0.0738 wt % with about a 30 minute autoclave time will result in a final wt % of about 0.054 in the sterilized product. Other than where expressly indicated, all numbers expressing amounts of materials, concentrations, quantified properties of materials, and so forth, stated in the specification and claims are to be understood as being modified in all instances by the term “about” or “approximately”.

CO[C@H]1/C=C/O[C@@]2(C)Oc3c(C)c(O)c4c(O)c(c(/C=N/N5CCN(C)CC5)c(O)c4c3C2=O)NC(=O)/C(C)=C\C=C\[C@H](C)[C@H](O)[C@@H](C)[C@@H](O)[C@@H](C)[C@H](OC(C)=O)[C@@H]1C [rifampin]
final concentration after autoclave sterilization: about 0.054 wt %
